Data taken from PMC8368996, “Interactions between AMOT PPxY motifs and NEDD4L WW domains function in HIV-1 release” (The Journal of Biological Chemistry, 2021).
Peptide text beside a SMILES is read from it. * marks the point of attachment. X1 = O=C1OC2(c3cc(F)c(O)cc3Oc3cc(O)c(F)cc32)c2ccc(N3C(=O)CC(*)C3=O)cc21

Target: T1, NEDD4L WW3 (Homo sapiens, UniProt Q96PU5)
T1 construct: -WW3(497 -530); GST (N, cleaved yes); made in house; host or cells: E. coli Rosetta-pLysS
Experiment: Fluorescence polarization (FP) anisotropy binding of labeled AMOT PPxY peptides to recombinant NEDD4L WW3 domain
Conditions: for fold reduction of NEDD4L WW3 binding affinity relative to the wt peptide: FP Kd ratio mutant / wt
Experimental: Each dilution series was performed at least in triplicate. […] The mean Kd values are reported as mean ± SEM.

T1 sequence (Q96PU5 497-530 limits assumed): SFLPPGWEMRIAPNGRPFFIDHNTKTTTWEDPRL

Compound | fold reduction of NEDD4L WW3 binding affinity relative to the wt peptide [fold] | fold tighter binding than any other pairwise AMOT PPxY-NEDD4L WW interaction (PPxY1-WW3 compared with the 11 other pairs of Fig. 3E)
CSCC[C@H](NC(=O)CNC(=O)[C@H](CCCCN)NC(=O)[C@H](Cc1ccccc1)NC(=O)[C@@H]1CCCN1C(=O)[C@H](Cc1ccc(O)cc1)NC(=O)[C@H](CCC(=O)O)NC(=O)[C@@H]1CCCN1C(=O)[C@H](CC(C)C)NC(=O)[C@@H]1CCCN1C(=O)CNC(=O)[C@H](CCCNC(=N)N)NC(=O)[C@H](Cc1c[nH]cn1)NC(=O)[C@H](CCC(=O)O)NC(=O)[C@H](CCSC)NC(=O)[C@@H](N)CSC1CC(=O)N(c2ccc3c(c2)C(=O)OC32c3cc(F)c(O)cc3Oc3cc(O)c(F)cc32)C1=O)C(N)=O (stereo partly shown) [(P/L)PPxY2] (H-C(X1)MEHRGPLPEYPFKGM-NH2; N-terminus and C-terminus assumed) | 2.8 | 
CSCC[C@H](NC(=O)[C@@H](N)CSC1CC(=O)N(c2ccc3c(c2)C(=O)OC32c3cc(F)c(O)cc3Oc3cc(O)c(F)cc32)C1=O)C(=O)N[C@@H](CCC(N)=O)C(=O)N[C@@H](CC(N)=O)C(=O)N[C@@H](CC(N)=O)C(=O)N[C@@H](CCC(=O)O)C(=O)N[C@@H](CCC(=O)O)C(=O)N[C@@H](CC(C)C)C(=O)N1CCC[C@H]1C(=O)N[C@H](C(=O)N[C@@H](Cc1ccc(O)cc1)C(=O)N[C@@H](CCC(=O)O)C(=O)N[C@@H](CCC(=O)O)C(=O)N[C@@H](CCCCN)C(=O)N[C@@H](CCCCN)C(=O)N[C@H](C(N)=O)C(C)C)[C@@H](C)O (stereo partly shown) [A112K] (H-C(X1)MQNNEELPTYEEKKV-NH2; N-terminus and C-terminus assumed) | 8 | 
CSCC[C@H](NC(=O)[C@@H](N)CSC1CC(=O)N(c2ccc3c(c2)C(=O)OC32c3cc(F)c(O)cc3Oc3cc(O)c(F)cc32)C1=O)C(=O)N[C@@H](CCC(N)=O)C(=O)N[C@@H](CC(N)=O)C(=O)N[C@@H](CC(N)=O)C(=O)N[C@@H](CCCCN)C(=O)N[C@@H](CCCCN)C(=O)N[C@@H](CC(C)C)C(=O)N1CCC[C@H]1C(=O)N[C@H](C(=O)N[C@@H](Cc1ccc(O)cc1)C(=O)N[C@@H](CCC(=O)O)C(=O)N[C@@H](CCC(=O)O)C(=O)N[C@@H](C)C(=O)N[C@@H](CCCCN)C(=O)N[C@H](C(N)=O)C(C)C)[C@@H](C)O (stereo partly shown) [E104K/E105K] (H-C(X1)MQNNKKLPTYEEAKV-NH2; N-terminus and C-terminus assumed) | 6 | 
CSCC[C@H](NC(=O)[C@@H](N)CSC1CC(=O)N(c2ccc3c(c2)C(=O)OC32c3cc(F)c(O)cc3Oc3cc(O)c(F)cc32)C1=O)C(=O)N[C@@H](CCC(N)=O)C(=O)N[C@@H](CC(N)=O)C(=O)N[C@@H](CC(N)=O)C(=O)N[C@@H](CCC(=O)O)C(=O)N[C@@H](CCC(=O)O)C(=O)N[C@@H](CC(C)C)C(=O)N1CCC[C@H]1C(=O)N[C@H](C(=O)N[C@@H](Cc1ccc(O)cc1)C(=O)N[C@@H](CCC(=O)O)C(=O)N[C@@H](CCC(=O)O)C(=O)N[C@@H](C)C(=O)N[C@@H](CCCCN)C(=O)N[C@H](C(N)=O)C(C)C)[C@@H](C)O (stereo partly shown) [PPxY1] (H-C(X1)MQNNEELPTYEEAKV-NH2; N-terminus and C-terminus assumed) |  | more than 5 fold
